# Laboratory results: US20110143993A1, “ENDOTHELIAL BASEMENT MEMBRANE TARGETING PEPTIDE LIGANDS” (The Brigham and Women's Hospital, Inc., priority 2009, published 2011)
# Experiments:
# [1] = Pharmacokinetic studies with 14C-paclitaxel or 3H-PLGA; set-up: species or system Sprague Dawley rats; conditions: male, Sprague Dawley, rat, in vivo
# Protocol: 12 male Sprague Dawley rats weighing approximately 250 g with bilateral jugular catheters were obtained from Charles River Laboratories (Wilmington, Mass.). […] 200-500 μL of blood was collected via the right catheter at 1, 3, 6, 9 and 24 h after injection (n=6). In a separate study to assess targeted lipid-polymeric nanoparticle polymer levels in circulation, 400 μl, of NPs synthesized with ^3H-PLGA was injected in saline (100 μCi/mL) and 100 μL of blood was collected at 1, 3, 6, 9, 24, 48, 96 and 120 h after injection (n=6). Blood radioactivity was quantified as disintegrations per minute (DPM) using the PerkinElmer Tri-Carb 2810TR liquid scintillation analyzer.
# Blood and tissue samples were processed as described by Chan J M, et al. Methods Mol. Biol. 2010; 624:163-175, with modifications. Solvable tissue solubilizer and Hionic-Fluor scintillation cocktail were purchased from PerkinElmer (Waltham, Mass.). All samples were weighed before processing. To prepare blood samples for radioisotope counting, 1.5 mL of tissue solubilizer was added to ≦0.5 mL blood and incubated at 55-60° C. for 2 h to dissolve the blood samples. Next, 50 μL of 0.5 mol/L EDTA-di-sodium salt solution was added to reduce foaming and 0.5 mL of hydrogen peroxide (300 g/L) was added dropwise with gentle agitation. Samples were further incubated at 55-60° C. for 1 h. To prepare tissue samples for radioisotope counting, kidney, spleen, liver, heart, and lung tissues (≦150 mg) were similarly processed, except with 4.0 mL of tissue solubilizer instead. Finally, 16 mL of Hionic-Fluor scintillation cocktail was added to both blood and tissue samples, and samples were subjected to temperature and light-adaptation for 1 h before counting. Sample radioactivity was read as disintegrations per minute (DPM) of either ^14C or ^3H radioisotopes using the PerkinElmer Tri-Carb 2810TR liquid scintillation analyzer, and standardized as DPM per gram of tissue or blood (DPM/g) based on the weight of the sample. […]
# in vivo = conditions: male, Swiss albino, mouse, in vivo, iv
# Protocol: (§1) Clinical monitoring over seven days was carried out for any signs of adverse effects.
# (§2) At the end of the study, animals were sacrificed by CO2 inhalation. Gross necropsy was performed and H&E sections of the major organs (liver, lung, heart, spleen, kidney, nerves) were examined for any signs of toxicity.
# Swiss albino mice = test: in vivo
# Protocol: as §1, §2
# Matrigel [2] = test: Phage clone binding to Matrigel (anti-M13 ELISA, ABTS absorbance); conditions: ABTS absorbance 405 nm vs 490 nm, 10^10 p.f.u. per clone
# Protocol: 96-well plates were coated with 100 μL 1/50 dilutions of Matrigel in TBS overnight at 4° C., or TBS buffer only. Plates were blocked with 3% BSA/TBS for 2 h at RT and washed three times. 10^10 p.f.u. of each phage clone was added in 0.5% TBST in triplicate to either Matrigel or BSA-coated wells. Bound phage particles were detected with peroxidase-conjugated mouse anti-M13 monoclonal antibodies at 1/5000 dilution (Amersham Pharmacia Biotech, Piscataway, N.J.). After a 1 h incubation, the reaction was developed with 2,2′-azino-bis(3-ethylbenzthiazoline-6-sulphonic acid) (ABTS) (Amersham) and the absorbance was read at 405 nm against a reference wavelength of 490 nm with a SpectraMax Plus 384 Microplate reader (Molecular Devices, Sunnyvale, Calif.).
# Matrigel [3] = test: Sequence-specific competition binding of phage clones against synthetic peptide equivalents; conditions: synthetic peptide vs cognate phage on Matrigel, n=3
# Protocol: Matrigel-coated and blocked 96-well plates were incubated in triplicate with 10^−5-10^−10 M peptide concentrations and 10^9 pfu of phage in 100 μL 0.5% TEST. After 1 h at RT, bound phages were labeled with anti-M13 mAb and color was developed and detected using ABTS absorbance (405-490 nm). Peptide inhibition curves were normalized on a percentage scale to provide an estimate of the IC50, which was calculated using a dose-response curve fit using the Origin 8 data analysis software (Northampton, Mass.) by the formula:
# Y=Bottom+(Top−Bottom)/(1+10̂((Log IC50−X)*HillSlope)).
# Matrigel [4] = test: Phage titer count analysis on Matrigel; type: binding; conditions: phage input 10^12/mL p.f.u., n=3
# Description: (§3) In a sequence-specific competition assay, the context-dependence of the phage towards the peptide-collagen IV binding interaction was investigated. […] The binding of phage C-11 was investigated in three independent titer count analyses. Phage titers of C-11 were compared against the library (R0) for binding to Matrigel and collagen IV with an initial phage input of 10^12/mL plaque forming units (p.f.u.).
# collagen IV = test: Phage titer count analysis on collagen IV; type: binding, human; conditions: phage input 10^12/mL p.f.u., n=3
# Description: as §3
# [5] = 168 h after single i.v. dose, paclitaxel 10 mg/kg, targeted nanoparticles 35 mg/kg, mean ± SD n=6
molecule,measurement,setting,value
CC(=O)O[C@H]1C(=O)[C@@]2(C)[C@H]([C@H](OC(=O)c3ccccc3)[C@]3(O)C[C@H](OC(=O)[C@H](O)[C@@H](NC(=O)c4ccccc4)c4ccccc4)C(C)=C1C3(C)C)[C@]1(OC(C)=O)CO[C@@H]1C[C@@H]2O [paclitaxel],time after which levels in circulation could not be further detected,[1],24 h
same,"t1/2α (h), half-life of distribution phase",[1]; iv,0.64 h
same,"t1/2β (h), half-life of elimination phase",[1]; iv,8.02 h
same,MTD,in vivo,10 mg/kg
same,hematological finding at day 7,"Swiss albino mice; 10 mg/kg, platelet count<400×10^9/L in two mice",signs of mild thrombocytopenia
same,lethality,"Swiss albino mice; 15 mg/kg dose, 1.2 mg/mL, mice i.v.",immediate death of two mice
same,"ALP, alkaline phosphatase",Swiss albino mice; [5],41.7 ± 1.77 U/L
same,"Baso, basophils",Swiss albino mice; [5],0.140 ± 0.078%
same,"Eo, eosinophils",Swiss albino mice; [5],0.0023 ± 0.004%
same,"HGB, hemoglobin",Swiss albino mice; [5],8.81 ± 0.49 mmol/L
same,"LYMPH, lymphocytes",Swiss albino mice; [5],0.69 ± 0.13%
same,"MCH, mean cell hemoglobin",Swiss albino mice; [5],17.1 ± 0.679 pg
same,MCHC,Swiss albino mice; [5],17.9 ± 0.47 mmol/L
same,"MCV, mean cell volume",Swiss albino mice; [5],59.5 ± 1.55 fL
same,"Mono, monocytes",Swiss albino mice; [5],0.167 ± 0.064%
same,"NEUT, neutrophils",Swiss albino mice; [5],0.002 ± 0.002%
same,"PLT, platelets",Swiss albino mice; [5],1026 ± 533 ×10^9/L
same,"RBC, red blood cells",Swiss albino mice; [5],8.30 ± 0.598 ×10^12/L
same,"WBC, white blood cells",Swiss albino mice; [5],2.05 ± 0.454 ×10^9/L
same,"ALT, alanine aminotransferase","Swiss albino mice; mouse, in vivo",61.01 ± 6.10 U/L
same,"AST, aspartate aminotransferase","Swiss albino mice; mouse, in vivo",119.83 ± 8.23 U/L
"KIWKLPQ [Clone C-10, heptapeptide from phage display against collagen IV; phage clone and synthetic peptide equivalent]",binding to Matrigel compared with the random library (R0),Matrigel [2],best candidates
same,IC50,Matrigel [3],917 nM
"KLWVLPK [Clone C-11, heptapeptide from phage display against collagen IV; phage clone and synthetic peptide equivalent]",binding to Matrigel compared with the random library (R0),Matrigel [2],best candidates
same,Matrigel binding compared to the library (phage titer),Matrigel [4],approximately 300 fold
same,IC50,Matrigel [3],117 nM
same,collagen IV binding compared to the library (phage titer),collagen IV,approximately 900 fold
"KIFVWPY [Clone A-9, heptapeptide from phage display against collagen IV; phage clone and synthetic peptide equivalent]",binding to Matrigel compared with the random library (R0),Matrigel [2],best candidates
same,IC50,Matrigel [3],551 nM
"KVWSLPQ [Clone A-8, heptapeptide from phage display against collagen IV; phage clone and synthetic peptide equivalent]",binding to Matrigel compared with the random library (R0),Matrigel [2],best candidates
same,IC50,Matrigel [3],1200 nM
